Structures are written as SMILES.

Here are results for 8 compounds from patent US8492387B2, “2-aminoimidazole beta-secretase inhibitors for the treatment of alzheimer's disease” (Merck, Sharp & Dohme, Corp., priority 2008, dated 2013).

BACE 1 (beta-secretase enzyme), sequence (P56817 46-457): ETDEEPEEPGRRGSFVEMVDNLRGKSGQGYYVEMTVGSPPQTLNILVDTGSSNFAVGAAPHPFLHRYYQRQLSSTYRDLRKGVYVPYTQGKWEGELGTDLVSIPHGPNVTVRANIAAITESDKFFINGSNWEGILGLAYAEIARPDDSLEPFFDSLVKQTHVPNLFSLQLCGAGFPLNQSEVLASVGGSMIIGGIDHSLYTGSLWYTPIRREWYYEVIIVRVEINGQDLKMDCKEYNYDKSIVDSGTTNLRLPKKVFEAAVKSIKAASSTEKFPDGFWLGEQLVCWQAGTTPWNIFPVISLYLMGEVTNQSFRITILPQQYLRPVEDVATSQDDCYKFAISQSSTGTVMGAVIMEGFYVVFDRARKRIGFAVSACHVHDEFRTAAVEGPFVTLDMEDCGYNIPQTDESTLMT

The assay has as its target BACE 1 (beta-secretase enzyme) (Homo sapiens (Human), UniProt P56817). Kind of assay: ECL Assay (homogeneous end point electrochemiluminescence assay with biotinylated BACE substrate). The assay is classed as biochemical. The following applies: soluble human enzyme, pH 6.5, rt. On the procedure:
Enzyme inhibition is determined as follows.
ECL Assay: A homogeneous end point electrochemiluminescence (ECL) assay is performed using a biotinylated BACE substrate. The Km of the substrate is approximated at 50 μM. A typical reaction contains approximately 0.6 nM enzyme, 0.25 μM of the substrate, and buffer (50 mM Pipes, pH 6.5, 0.1 mg/ml BSA, 0.2% CHAPS, 15 mM EDTA and 1 mM deferoxamine) in a total reaction volume of 100 μl. The reaction proceeds for 1-2 hrs and is then stopped by the addition of 150 μL of a quench cocktail solution ([…], pH 8.0, 50 μL INC buffer (2% BSA, 0.2% Tween-20 and 0.05% sodium azide diluted in phosphate buffered saline (PBS) plus 75 μL, PBS), containing streptavadin coated magnetic beads and ruthenylated antibody which specifically recognizes the C-terminal residue of the product. The samples are subjected to M-384 (Igen Inc., Gaithersburg, Md.) analysis. Under these conditions, less than 10% of substrate is processed by BACE 1. The enzyme used in these studies is soluble (transmembrane domain and cytoplasmic extension excluded) human protein produced in a baculovirus expression system. To measure the inhibitory potency for compounds, 10 concentrations of inhibitors are prepared starting from 200 μM with three fold series dilution. Solutions of the inhibitor in DMSO are included in the reaction mixture (final DMSO concentration is 10%). All experiments are conducted at rt using the standard reaction conditions described above. To determine the IC50 of the compound, a four parameter equation is used for curve fitting. The errors in reproducing the dissociation constants are typically less than two-fold.
In turn, `COc1ccc([C@H](Cc2ccc(C(F)(F)F)cc2)c2nc(N)[nH]c2C(O)c2ccccc2)cc1` (stereo partly drawn) [Example 2, (2-amino-4-{(1S)-1-(4-methoxyphenyl)-2-[4-(trifluoromethyl)phenyl]ethyl}-1H-imidazole-5-yl) (phenyl)methanol] came in with a 50% inhibitory concentration (IC50) of 5 µM.

Turning to `Cn1cc(C2(Cc3ccccc3)CCc3ccccc32)nc1N` (centres unmarked) [Example 3, 4-(1-benzyl-2,3-dihydro-1H-inden-1-yl)-1-methyl-1H-imidazol-2-amine], it took 12 µM to reach half-maximal inhibition (IC50).

In the case of `COc1ccc(C(Cc2cccc(-c3ccc(C(F)(F)F)cc3Cl)c2)c2cn(C)c(N)n2)cc1` (centres unmarked) [Example 34, 4-[2-[2′-chloro-4′-(trifluoromethyl)biphenyl-3-yl]-1-(4-methoxyphenyl)ethyl]-1-methyl-1H-imidazol-2-amine], the concentration for half-maximal inhibition (IC50) is 11 µM.

`COc1ccc(C2(c3cn(C)c(N)n3)CCCCC2)cc1` [Example 41, 4-[1-(4-methoxyphenyl)cyclohexyl]-1-methyl-1H-imidazol-2-amine] registered a 50% inhibitory concentration (IC50) of 27 µM.

Take `COc1ccc(C(Cc2ccc(-c3ccc(O)nc3)cc2)c2cn(C)c(N)n2)cc1` (centres unmarked) [Example 55, 5-{4-[2-(2-amino-1-methyl-1H-imidazol-4-yl)-2-(4-methoxyphenyl)ethyl]phenyl}pyridin-2-ol]: the midpoint of inhibition, the IC50, lay at 17 µM.

The compound `COc1ccc2c(c1)CCC2(Cc1cc([N+](=O)[O-])ccc1OC)c1cn(C)c(N)n1` (centres unmarked) [Example 111, 4-[5-methoxy-1-(2-methoxy-5-nitrobenzyl)-2,3-dihydro-1H-inden-1-yl]-1-methyl-1H-imidazol-2-amine] gave a concentration for half-maximal inhibition (IC50) of 3.2 µM.

Compound `COc1ccc2c(c1)CCC2(Cc1ccc(C(F)(F)F)nc1)c1cn(Cc2ccccc2)c(N)n1` (centres unmarked) [Example 114, 1-benzyl-4-(5-methoxy-1-{[6-(trifluoromethyl)pyridin-3-yl]methyl}-2,3-dihydro-1H-inden-1-yl)-1H-imidazol-2-amine] returned a 50% inhibitory concentration (IC50) of 0.063 µM.

With `COc1ccc2c(c1)CCC2(Cc1ccc(C(F)(F)F)nc1)c1cn(CCCO)c(N)n1` (centres unmarked) [Example 115, 3-[2-amino-4-(5-methoxy-1-{[6-(trifluoromethyl)pyridin-3-yl]methyl}-2,3-dihydro-1H-inden-1-yl)-1H-imidazol-1-yl]propan-1-ol], the IC50 amounted to 3.3 µM.
